Data: US20040157802A1, “Anti-microbial agents derived from methionine sulfoximine analogues” (priority 2002, published 2004)
“And” between values parts separate entries of the source, which are not always exact repeats. Equal entries are not always repeated.

How the values were obtained:
[1] = cited from earlier work
[2] = cited from earlier work; for Estimtated Dose of L Isomer that Induces Convulsions in Mice (Relative to MSO): Table 1; for Estimtated Dose of L Isomer that Induces Convulsions in Mice (Relative to MSO) / Estimated Dose of L Isomer that Induces Convulsions in Mice (Relative to MSO): relative to MSO = 1; for Estimated Dose of L Isomer that Induces Convulsions in Mice (Relative to MSO): Table 3; for Dose that induces convulsions in mice relative to the dose of MSO: α-Et-MSO: convulsions in a minority of mice vs MSO in 100% of mice
M. tuberculosis Erdman = assay: M. tuberculosis growth in broth culture (CFU); type: cell-based; conditions: for Efficacy against M. tuberculosis growth in broth culture in comparison with MSO: 10, 100, 1000 μM, Example 6, FIG. 4; for Inhibition of growth of M. tuberculosis in broth culture: 10, 100 or 1000 μM, 6 weeks; for Inhibition of growth of M. tuberculosis in broth culture / Inhibition of M. tuberculosis in broth culture relative to MSO: Example 7; for Inhibition of M. tuberculosis in broth culture relative to MSO: at each of 10, 100, 1000 μM
[3] = tested on: M. tuberculosis Erdman in human macrophages (THP-1 cells); conditions: 20, 200, 2000 μM, FIG. 5
[4] = target: mammalian glutamine synthetase (MGS) (Homo sapiens, UniProt P15104); conditions: cited from earlier work
[5] = target: T1, mammalian gamma-glutamylcysteine synthetase (γ-GCS) (Homo sapiens, UniProt P48506); conditions: cited from earlier work
T1 sequence (P48506 1-637): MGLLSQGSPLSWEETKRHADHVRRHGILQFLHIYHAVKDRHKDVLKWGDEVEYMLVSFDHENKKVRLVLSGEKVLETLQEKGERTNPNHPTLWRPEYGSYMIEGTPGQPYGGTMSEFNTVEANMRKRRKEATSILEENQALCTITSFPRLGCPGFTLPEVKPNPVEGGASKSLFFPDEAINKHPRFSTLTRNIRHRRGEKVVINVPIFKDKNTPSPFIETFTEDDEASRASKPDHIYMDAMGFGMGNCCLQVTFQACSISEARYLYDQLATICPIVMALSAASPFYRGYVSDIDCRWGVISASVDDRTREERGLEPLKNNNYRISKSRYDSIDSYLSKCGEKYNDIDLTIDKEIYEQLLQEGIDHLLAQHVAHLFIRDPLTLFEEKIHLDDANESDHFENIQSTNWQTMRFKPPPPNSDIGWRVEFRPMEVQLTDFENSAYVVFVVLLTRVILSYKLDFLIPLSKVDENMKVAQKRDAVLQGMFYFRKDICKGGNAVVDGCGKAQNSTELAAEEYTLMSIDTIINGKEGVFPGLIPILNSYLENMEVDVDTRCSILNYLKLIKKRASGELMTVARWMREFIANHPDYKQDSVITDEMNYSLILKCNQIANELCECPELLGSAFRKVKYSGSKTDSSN

[6] = BSO at doses that fully inhibit glutathione synthesis, guinea pigs; cited from earlier work
[7] = tested on: M. tuberculosis Erdman strain; conditions: in vivo

mammalian glutamine synthetase (MGS), sequence (P15104 2-373 limits assumed): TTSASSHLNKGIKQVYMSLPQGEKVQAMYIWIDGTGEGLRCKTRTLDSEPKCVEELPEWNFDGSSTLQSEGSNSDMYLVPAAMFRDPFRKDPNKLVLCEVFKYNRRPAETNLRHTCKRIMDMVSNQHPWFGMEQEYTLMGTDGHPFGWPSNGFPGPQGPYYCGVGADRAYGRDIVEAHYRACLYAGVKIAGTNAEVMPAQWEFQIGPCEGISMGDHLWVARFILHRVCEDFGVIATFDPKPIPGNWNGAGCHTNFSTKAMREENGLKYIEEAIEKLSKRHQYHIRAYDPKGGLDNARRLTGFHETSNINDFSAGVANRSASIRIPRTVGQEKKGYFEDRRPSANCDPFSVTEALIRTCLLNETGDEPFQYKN

CCC(N)(CCS(C)(=N)=O)C(=O)O (racemic) [α-Et-MSO, α-ethyl-DL-methionine-SR-sulfoximine]
Metabolism [1]: resistant to metabolism | Estimtated Dose of L Isomer that Induces Convulsions in Mice (Relative to MSO) [2]: >16 | Estimated Dose of L Isomer that Induces Convulsions in Mice (Relative to MSO) [2]: ≧16 | Dose that induces convulsions in mice relative to the dose of MSO [2]: 16 fold | Efficacy against M. tuberculosis growth in broth culture in comparison with MSO (M. tuberculosis Erdman): as inhibitory to M. tuberculosis growth as MSO | Inhibition of growth of M. tuberculosis in broth culture (M. tuberculosis Erdman): inhibited M. tuberculosis | Inhibition of M. tuberculosis in broth culture relative to MSO (M. tuberculosis Erdman): as inhibitory or slightly more inhibitory than MSO | Inhibition of M. tuberculosis growth in human macrophages [3]: readily inhibited | Inhibition of mammalian GS [4]: inhibit mammalian GS | Inhibition of γ-GCS [5]: specific to GS

CC(N)(CCS(C)(=N)=O)C(=O)O (racemic) [α-Me-MSO, α-methyl-DL-methionine-SR-sulfoximine]
Metabolism [1]: resistant to metabolism | Estimtated Dose of L Isomer that Induces Convulsions in Mice (Relative to MSO) [2]: 8 | Estimated Dose of L Isomer that Induces Convulsions in Mice (Relative to MSO) [2]: 8 | Dose that induces convulsions in mice relative to the dose of MSO [2]: ~8 fold | Efficacy against M. tuberculosis growth in broth culture in comparison with MSO (M. tuberculosis Erdman): as inhibitory to M. tuberculosis growth as MSO | Inhibition of growth of M. tuberculosis in broth culture (M. tuberculosis Erdman): inhibited M. tuberculosis | Inhibition of M. tuberculosis in broth culture relative to MSO (M. tuberculosis Erdman): slightly less inhibitory than MSO | Inhibition of M. tuberculosis growth in human macrophages [3]: readily inhibited | Inhibition of mammalian GS [4]: inhibit mammalian GS | Inhibition of γ-GCS [5]: inhibit γ-GCS

CCCCS(=N)(=O)CCC(N)C(=O)O [BSO, D, L-Buthionine-SR-Sulfoximine, reference compound]
Inhibition of growth of M. tuberculosis in broth culture (M. tuberculosis Erdman): did not | Animals killed [6]: 100%

NNC(=O)c1ccncc1 [INH, isoniazid]
Protection from weight loss, drug administered alone [7]: protected animals from weight loss | Reduction of CFU in lung and spleen below the level obtained with MSO [7]: ~1.5 logs and ~2.5 logs

CS(=N)(=O)CC[C@H](N)C(=O)O (stereo partly drawn) [MSO, L-methionine-SR-sulfoximine]
MTD in the presence of ascorbate relative to MTD in the absence of ascorbate (guinea pig, in vivo): 4 fold | Maximum tolerated dose for guinea pigs infected with M. tuberculosis (guinea pig, in vivo): 1.5 mg/kg/day | Tolerability (guinea pig, in vivo): early weight loss | Estimtated Dose of L Isomer that Induces Convulsions in Mice (Relative to MSO) [2]: 1 | Estimated Dose of L Isomer that Induces Convulsions in Mice (Relative to MSO) [2]: 1 | Inhibition of growth of M. tuberculosis in broth culture (M. tuberculosis Erdman): inhibited M. tuberculosis | Fewer CFU of M. tuberculosis in organs than control animals [7]: approximately 1 log unit | Protection from weight loss, drug administered alone [7]: protected animals from weight loss | Reduction of CFU of M. tuberculosis compared with control animals [7]: ~0.7 logs | Weight loss compared with untreated control animals [7]: protected from a precipitous decline in weight loss in the final week | Reduction of CFU in the lungs and spleen compared with untreated controls ([7]; ip): 2.5 logs | Inhibition of mammalian GS [4]: inhibit mammalian GS | Inhibition of γ-GCS [5]: inhibit γ-GCS

O=C1O[C@H]([C@@H](O)CO)C(O)=C1O [ascorbate]
Well tolerated total dose of ascorbate (i.p., guinea pigs, 9 mmoles kg^−1 day^−1 not well tolerated): 3 mmol/kg/day
